Source: patent US8883963B2 (Cadila Healthcare Limited, priority 2007, dated 2014)
Starred links: 1 amine or outer side, 2 acyl side, 3 side chain; linkers in the order of their positions; H or OH if unused. Non-standard residues stand in square brackets, D forms with d. Residues, ends and D or L forms follow the SMILES beside them. ξ: configuration not given here. ξBip(2'-Et-4'-OMe) = CCc1cc(OC)ccc1-c1ccc(CC(N)C(=O)O)cc1; X1 = O=C(C(CCCc1ccc(C(F)(F)F)cc1F)N[*:1])[*:2]

How the values were obtained:
[1] = system: RIN5F (Rat Insulinoma) cells; experiment: In vitro glucose-dependent insulin secretion (RIN5F cell assay screening protocol); type: cell-based; details: 16.7 mM glucose load
[2] = biological target: T1, Human GLP-1 receptor (Homo sapiens, UniProt P43220); experiment: In vitro Human GLP-1 R agonist activity (cyclic AMP determination) in CHO/human GLP1R cells; type: cell-based
T1 construct: The full-length cDNA was cloned in pcDNA3.1(+); expressed in transfected cells

[3] = Stability in simulated intestinal fluid; type: in vitro ADME; details: 2 μM peptidomimetic, simulated intestinal fluid pH 7.5, 37° C.; for half-life at 2 μM: read-out: half-life (t1/2) when incubated with simulated intestinal fluid
Procedure: (§1) Reactions were terminated by the addition of TFA/H2O (15 mL, 10% (v/v)). […] The column was equilibrated with TFA/H20, at a flow rate of 1 mL/min.

[4] = Stability in simulated gastric fluid; type: in vitro ADME; details: 2 μM peptidomimetic, simulated gastric fluid pH 1.5, 37° C.; for half-life at 2 μM: read-out: half-life (t1/2) when incubated with simulated gastric fluid
Procedure: as §1

[5] = biological target: DPP IV (Homo sapiens, UniProt P27487); experiment: Stability against DPP IV enzyme; type: in vitro ADME; details: 37° C.; for % degradation of peptidomimetics in 24 h when incubated with DPP-IV enzyme: 2 μM peptidomimetic; for half-life at 2 μM: DPP IV enzyme, pH 7.8, 2 μM peptidomimetic, read-out: half-life (t1/2) when incubated with DPP-IV enzyme
Procedure: as §1

[6] = Stability in human plasma; type: in vitro ADME; details: 2 μM peptidomimetic, pooled human plasma, 37° C.; for half-life at 2 μM: pH 7.8, read-out: half-life (t1/2) when incubated with human plasma
Procedure: as §1

[7] = Stability in liver microsomes; type: in vitro ADME; details: 2 μM peptidomimetic, human liver microsomes, 37° C.; for half-life at 2 μM: pH 7.8, read-out: half-life (t1/2) when incubated with liver microsomes
Procedure: as §1

[8] = biological target: T2, human glucagon receptor (Homo sapiens, UniProt P47871); experiment: In vitro human glucagon antagonist activity (inhibition of cAMP production) in CHO/human glucagon R cells; type: cell-based; details: with saturated concentration of glucagon peptide
T2 construct: The full-length cDNA was cloned in pcDNA3.1 (Invitrogen); expressed in transfected cells
T2 sequence (P47871 26-477): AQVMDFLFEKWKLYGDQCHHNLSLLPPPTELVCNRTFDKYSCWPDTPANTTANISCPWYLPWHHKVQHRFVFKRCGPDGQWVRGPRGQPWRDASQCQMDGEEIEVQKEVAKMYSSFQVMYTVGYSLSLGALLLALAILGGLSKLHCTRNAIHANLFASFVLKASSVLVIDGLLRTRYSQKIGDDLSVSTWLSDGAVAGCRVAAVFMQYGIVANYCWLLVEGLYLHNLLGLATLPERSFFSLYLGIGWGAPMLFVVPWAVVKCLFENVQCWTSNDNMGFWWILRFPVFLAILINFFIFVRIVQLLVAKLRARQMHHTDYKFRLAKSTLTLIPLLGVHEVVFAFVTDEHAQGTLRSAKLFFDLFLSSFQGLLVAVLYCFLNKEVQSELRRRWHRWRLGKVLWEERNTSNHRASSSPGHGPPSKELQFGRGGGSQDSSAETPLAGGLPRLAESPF

T1 sequence (P43220 24-463): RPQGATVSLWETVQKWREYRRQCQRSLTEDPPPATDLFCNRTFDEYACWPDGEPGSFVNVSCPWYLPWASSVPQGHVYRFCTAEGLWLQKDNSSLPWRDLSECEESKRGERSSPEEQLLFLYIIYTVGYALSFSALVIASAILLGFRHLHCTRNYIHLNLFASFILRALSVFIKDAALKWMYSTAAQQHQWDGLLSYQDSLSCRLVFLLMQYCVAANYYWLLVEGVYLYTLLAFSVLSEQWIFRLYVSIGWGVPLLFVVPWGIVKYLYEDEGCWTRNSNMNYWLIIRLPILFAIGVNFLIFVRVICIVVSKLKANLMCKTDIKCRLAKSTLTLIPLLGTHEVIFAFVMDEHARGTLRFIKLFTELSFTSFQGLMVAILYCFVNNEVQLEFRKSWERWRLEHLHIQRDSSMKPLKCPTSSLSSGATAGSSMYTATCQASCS
DPP IV, sequence (P27487 whole entry, species assumed): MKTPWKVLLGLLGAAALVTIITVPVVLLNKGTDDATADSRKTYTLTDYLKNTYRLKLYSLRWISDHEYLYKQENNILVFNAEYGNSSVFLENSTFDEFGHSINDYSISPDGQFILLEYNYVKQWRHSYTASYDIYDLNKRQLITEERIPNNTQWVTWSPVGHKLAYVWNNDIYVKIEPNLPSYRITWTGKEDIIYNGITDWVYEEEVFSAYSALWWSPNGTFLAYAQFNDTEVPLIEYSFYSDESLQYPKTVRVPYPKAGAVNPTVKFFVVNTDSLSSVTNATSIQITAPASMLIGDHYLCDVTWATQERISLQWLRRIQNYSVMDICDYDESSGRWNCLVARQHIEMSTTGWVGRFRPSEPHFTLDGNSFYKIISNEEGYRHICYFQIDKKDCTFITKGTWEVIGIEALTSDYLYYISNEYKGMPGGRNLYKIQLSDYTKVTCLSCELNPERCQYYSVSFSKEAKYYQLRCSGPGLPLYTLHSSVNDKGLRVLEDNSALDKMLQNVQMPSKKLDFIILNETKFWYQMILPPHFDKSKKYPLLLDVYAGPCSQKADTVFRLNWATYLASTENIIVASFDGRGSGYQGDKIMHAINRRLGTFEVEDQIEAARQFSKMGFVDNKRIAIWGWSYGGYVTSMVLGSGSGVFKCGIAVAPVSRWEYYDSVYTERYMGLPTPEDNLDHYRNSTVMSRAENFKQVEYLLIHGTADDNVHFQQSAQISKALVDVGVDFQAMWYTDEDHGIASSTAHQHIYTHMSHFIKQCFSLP

SMILES	Insulin secretion ([1]; 0.1 nM test compd.)	Insulin secretion ([1]; 1 nM test compd.)	Insulin secretion ([1]; 10 nM test compd.)	Human GLP-1 R activity (cAMP release), % activity with respect to control ([2]; 1 nM test compound)	Human GLP-1 R activity (cAMP release), % activity with respect to control ([2]; 10 nM test compound)	Human GLP-1 R activity (cAMP release), % activity with respect to control ([2]; 100 nM test compound)	Human GLP-1 R activity (cAMP release), % activity with respect to control ([2]; 1 μM test compound)	Human GLP-1 R activity (cAMP release), % activity with respect to control ([2]; 10 μM test compound)	% degradation of peptidomimetics in 24 h when incubated with simulated intestinal fluid [3]	half-life at 2 μM [3]	% degradation of peptidomimetics in 24 h when incubated with simulated gastric fluid [4]	half-life at 2 μM [4]	% degradation of peptidomimetics in 24 h when incubated with DPP-IV enzyme [5]	half-life at 2 μM [5]	% degradation of peptidomimetics in 24 h when incubated with human plasma [6]	half-life at 2 μM [6]	% degradation of peptidomimetics in 24 h when incubated with liver microsomes [7]	half-life at 2 μM [7]	half-life (t1/2) when incubated with human plasma [6]	further results
CCc1cc(OC)ccc1-c1ccc(CC(NC(=O)[C@H](CC(=O)O)NC(=O)[C@H](CO)NC(=O)[C@@H](NC(=O)[C@H](Cc2ccccc2)NC(=O)[C@@H](NC(=O)CNC(=O)C(CCC#N)NC(=O)C(C)(C)NC(=O)[C@@H](N)Cc2c[nH]cn2)[C@@H](C)O)[C@@H](C)O)C(=O)NC(CCCc2ccccc2Cl)C(N)=O)cc1 (single isomer, unassigned) [compound 82]	16.9 ± 0.22 pg/µg/h	22.8 ± 0.31 pg/µg/h	36.7 ± 0.34 pg/µg/h	78 ± 0.12%	99 ± 0.15%	99 ± 0.18%	99 ± 0.03%	99 ± 0.09%	00%	> 24 h	55%	4 h	00%	> 24 h	00%	> 24 h	84%	2 h	–	–
CCc1cc(OC)ccc1-c1ccc(CC(NC(=O)[C@H](CC(=O)O)NC(=O)[C@H](CO)NC(=O)[C@@H](NC(=O)[C@H](Cc2ccccc2)NC(=O)[C@@H](NC(=O)CNC(=O)C(CCC#N)NC(=O)C(C)(C)NC(=O)[C@@H](N)Cc2c[nH]cn2)[C@@H](C)O)[C@@H](C)O)C(=O)NC(CCCc2ccc(Cl)cc2C)C(N)=O)cc1 (single isomer, unassigned) [compound 32]	12.1 ± 0.52 pg/µg/h	14.1 ± 0.16 pg/µg/h	28.0 ± 0.36 pg/µg/h	39 ± 0.11%	80 ± 0.09%	88 ± 0.06%	96 ± 0.14%	99 ± 0.19%	100%	0.5 h	100%	0.5 h	75%	–	77%	–	100%	0.5 h	(9) h	–
CCc1cc(OC)ccc1-c1ccc(CC(NC(=O)[C@H](CC(=O)O)NC(=O)[C@H](CO)NC(=O)[C@@H](NC(=O)[C@H](Cc2ccccc2)NC(=O)[C@@H](NC(=O)CNC(=O)C(CCC#N)NC(=O)C(C)(C)NC(=O)[C@@H](N)Cc2c[nH]cn2)[C@@H](C)O)[C@@H](C)O)C(=O)NC(CCCc2ccc(F)cc2C(F)(F)F)C(N)=O)cc1 (single isomer, unassigned) [compound 80]	16.2 ± 0.13 pg/µg/h	22.4 ± 0.19 pg/µg/h	36.2 ± 0.09 pg/µg/h	66 ± 0.022%	97 ± 0.46%	99 ± 0.41%	99 ± 0.66%	99 ± 0.03%	100%	0.5 h	100%	0.5 h	72%	–	70%	–	100%	0.5 h	(9) h	–
CCc1cc(OC)ccc1-c1ccc(CC(NC(=O)[C@H](CC(=O)O)NC(=O)[C@H](CO)NC(=O)[C@@H](NC(=O)[C@H](Cc2ccccc2)NC(=O)[C@@H](NC(=O)CNC(=O)C(CCC#N)NC(=O)C(C)(C)NC(=O)[C@@H](N)Cc2c[nH]cn2)[C@@H](C)O)[C@@H](C)O)C(=O)NC(CCCc2ccc(C(F)(F)F)cc2F)C(N)=O)cc1 (single isomer, unassigned) [compound 81]	17.1 ± 0.15 pg/µg/h	23.1 ± 0.12 pg/µg/h	37.0 ± 0.19 pg/µg/h	69 ± 0.09%	98 ± 0.07%	99 ± 0.04%	99 ± 0.01%	99 ± 0.08%	00%	> 24 h	50%	4 h	00%	> 24 h	00%	> 24 h	86%	2 h	–	–
CCc1cc(OC)ccc1-c1ccc(CC(NC(=O)[C@H](CC(=O)O)NC(=O)[C@H](CO)NC(=O)[C@@H](NC(=O)[C@H](Cc2ccccc2)NC(=O)[C@@H](NC(=O)CNC(=O)[C@H](CCC(N)=O)NC(=O)[C@H](CO)NC(=O)[C@@H](N)Cc2c[nH]cn2)[C@@H](C)O)[C@@H](C)O)C(=O)NC(CCCc2ccc(C(F)(F)F)cc2F)C(N)=O)cc1 (stereo partly shown) [compound 49] (H-HSQGTFTSD[ξBip(2'-Et-4'-OMe)][X1]-NH2)	16.1 ± 0.22 pg/µg/h	22.1 ± 0.26 pg/µg/h	36.0 ± 0.36 pg/µg/h	–	–	–	–	–	45%	–	14%	–	75%	9 h	77%	8 h	81%	1 h	–	Human Glucagon receptor antagonistic activity shown as inhibition of cAMP production of Glucagon peptide ([8]; 1 nM test compound): 10 ± 0.03 pmol/ml/μg prt; Human Glucagon receptor antagonistic activity shown as inhibition of cAMP production of Glucagon peptide ([8]; 10 nM test compound): 8 ± 0.03 pmol/ml/μg prt; Human Glucagon receptor antagonistic activity shown as inhibition of cAMP production of Glucagon peptide ([8]; 100 nM test compound): 6 ± 0.22 pmol/ml/μg prt; Human Glucagon receptor antagonistic activity shown as inhibition of cAMP production of Glucagon peptide ([8]; 1 μM test compound): 2 ± 0.13 pmol/ml/μg prt; Human Glucagon receptor antagonistic activity shown as inhibition of cAMP production of Glucagon peptide ([8]; 10 μM test compound): 0 pmol/ml/μg prt; half-life (t1/2) when incubated with simulated intestinal fluid [3]: (6) h; half-life (t1/2) when incubated with simulated gastric fluid [4]: (8) h
